Drawing on ChEMBL document CHEMBL5465560, “Selectivity Literature for EUbOPEN Chemogenomic Library” (2024), this text covers % of control for three molecules.

Test [1] has as its target T1, Serine/threonine-protein kinase Nek1 (Homo sapiens) (UniProt Q96PY6).
T1 sequence (whole entry): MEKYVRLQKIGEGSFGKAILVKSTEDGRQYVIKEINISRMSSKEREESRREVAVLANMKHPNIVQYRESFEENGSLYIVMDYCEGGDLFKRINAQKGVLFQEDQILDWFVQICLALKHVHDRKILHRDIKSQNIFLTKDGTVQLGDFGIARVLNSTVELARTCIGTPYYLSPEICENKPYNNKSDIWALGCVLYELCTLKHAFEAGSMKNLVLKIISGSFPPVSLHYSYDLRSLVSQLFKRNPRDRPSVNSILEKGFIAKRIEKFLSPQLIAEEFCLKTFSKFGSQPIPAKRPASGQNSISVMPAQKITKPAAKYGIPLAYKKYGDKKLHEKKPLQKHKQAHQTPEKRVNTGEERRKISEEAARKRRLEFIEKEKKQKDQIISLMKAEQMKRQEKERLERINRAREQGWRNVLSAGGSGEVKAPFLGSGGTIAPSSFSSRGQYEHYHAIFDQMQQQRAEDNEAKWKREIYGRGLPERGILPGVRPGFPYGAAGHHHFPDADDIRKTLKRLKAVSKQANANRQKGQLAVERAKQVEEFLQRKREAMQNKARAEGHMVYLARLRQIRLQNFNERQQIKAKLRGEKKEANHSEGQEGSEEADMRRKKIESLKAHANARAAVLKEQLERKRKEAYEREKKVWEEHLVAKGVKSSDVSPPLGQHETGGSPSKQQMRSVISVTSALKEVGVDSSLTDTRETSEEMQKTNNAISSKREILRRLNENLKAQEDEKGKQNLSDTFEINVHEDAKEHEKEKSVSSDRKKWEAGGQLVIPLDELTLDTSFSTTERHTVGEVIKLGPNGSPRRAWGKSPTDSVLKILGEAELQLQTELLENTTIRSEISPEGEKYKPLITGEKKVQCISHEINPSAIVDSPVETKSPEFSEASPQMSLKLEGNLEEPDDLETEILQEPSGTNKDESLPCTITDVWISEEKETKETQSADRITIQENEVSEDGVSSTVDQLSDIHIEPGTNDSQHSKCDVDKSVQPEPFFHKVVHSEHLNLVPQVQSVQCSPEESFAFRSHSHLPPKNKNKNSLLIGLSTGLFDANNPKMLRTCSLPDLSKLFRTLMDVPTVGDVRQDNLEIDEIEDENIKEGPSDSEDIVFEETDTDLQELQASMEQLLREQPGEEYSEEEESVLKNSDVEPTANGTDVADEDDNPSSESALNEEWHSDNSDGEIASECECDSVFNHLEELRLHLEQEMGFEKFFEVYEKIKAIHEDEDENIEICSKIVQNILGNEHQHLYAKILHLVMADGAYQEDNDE
The conditions noted are these: at 10 µM.

For test [2], the target named is Macrophage colony-stimulating factor 1 receptor (Homo sapiens) (UniProt P07333). Nature of the test: Selectivity interaction (KinomeScan (DiscoverX)) EUB0001619a CSF1R. The conditions noted are these: at 1 µM.
Chain of Macrophage colony-stimulating factor 1 receptor (Homo sapiens) (P07333 whole entry): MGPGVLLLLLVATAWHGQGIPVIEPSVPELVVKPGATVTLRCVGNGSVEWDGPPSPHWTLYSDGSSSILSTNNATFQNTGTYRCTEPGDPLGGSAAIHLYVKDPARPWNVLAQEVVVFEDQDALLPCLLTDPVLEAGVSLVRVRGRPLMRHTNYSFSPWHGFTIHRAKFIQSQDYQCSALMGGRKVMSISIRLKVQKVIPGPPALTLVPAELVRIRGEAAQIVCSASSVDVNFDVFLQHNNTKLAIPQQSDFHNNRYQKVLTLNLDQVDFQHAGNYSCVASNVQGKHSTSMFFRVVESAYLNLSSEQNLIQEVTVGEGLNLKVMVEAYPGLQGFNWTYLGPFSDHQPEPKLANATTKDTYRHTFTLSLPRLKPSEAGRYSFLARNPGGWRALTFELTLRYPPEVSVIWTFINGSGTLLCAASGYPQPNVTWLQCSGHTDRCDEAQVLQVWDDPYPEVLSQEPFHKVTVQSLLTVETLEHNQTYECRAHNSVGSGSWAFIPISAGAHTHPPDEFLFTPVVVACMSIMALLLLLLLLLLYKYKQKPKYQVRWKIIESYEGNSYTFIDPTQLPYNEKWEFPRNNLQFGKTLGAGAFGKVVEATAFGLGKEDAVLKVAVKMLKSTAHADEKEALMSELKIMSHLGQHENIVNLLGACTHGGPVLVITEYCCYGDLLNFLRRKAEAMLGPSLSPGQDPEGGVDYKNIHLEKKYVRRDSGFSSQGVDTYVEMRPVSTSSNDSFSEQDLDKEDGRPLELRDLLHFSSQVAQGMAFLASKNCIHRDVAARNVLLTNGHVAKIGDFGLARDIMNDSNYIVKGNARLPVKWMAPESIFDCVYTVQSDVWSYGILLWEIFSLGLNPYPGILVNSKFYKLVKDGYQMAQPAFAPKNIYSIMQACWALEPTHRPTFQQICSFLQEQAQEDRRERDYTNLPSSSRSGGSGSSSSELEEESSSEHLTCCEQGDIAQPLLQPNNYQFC
Test [3] concerns the target T2, Ephrin type-A receptor 6 (Homo sapiens) (UniProt Q9UF33).
T2 sequence (whole entry): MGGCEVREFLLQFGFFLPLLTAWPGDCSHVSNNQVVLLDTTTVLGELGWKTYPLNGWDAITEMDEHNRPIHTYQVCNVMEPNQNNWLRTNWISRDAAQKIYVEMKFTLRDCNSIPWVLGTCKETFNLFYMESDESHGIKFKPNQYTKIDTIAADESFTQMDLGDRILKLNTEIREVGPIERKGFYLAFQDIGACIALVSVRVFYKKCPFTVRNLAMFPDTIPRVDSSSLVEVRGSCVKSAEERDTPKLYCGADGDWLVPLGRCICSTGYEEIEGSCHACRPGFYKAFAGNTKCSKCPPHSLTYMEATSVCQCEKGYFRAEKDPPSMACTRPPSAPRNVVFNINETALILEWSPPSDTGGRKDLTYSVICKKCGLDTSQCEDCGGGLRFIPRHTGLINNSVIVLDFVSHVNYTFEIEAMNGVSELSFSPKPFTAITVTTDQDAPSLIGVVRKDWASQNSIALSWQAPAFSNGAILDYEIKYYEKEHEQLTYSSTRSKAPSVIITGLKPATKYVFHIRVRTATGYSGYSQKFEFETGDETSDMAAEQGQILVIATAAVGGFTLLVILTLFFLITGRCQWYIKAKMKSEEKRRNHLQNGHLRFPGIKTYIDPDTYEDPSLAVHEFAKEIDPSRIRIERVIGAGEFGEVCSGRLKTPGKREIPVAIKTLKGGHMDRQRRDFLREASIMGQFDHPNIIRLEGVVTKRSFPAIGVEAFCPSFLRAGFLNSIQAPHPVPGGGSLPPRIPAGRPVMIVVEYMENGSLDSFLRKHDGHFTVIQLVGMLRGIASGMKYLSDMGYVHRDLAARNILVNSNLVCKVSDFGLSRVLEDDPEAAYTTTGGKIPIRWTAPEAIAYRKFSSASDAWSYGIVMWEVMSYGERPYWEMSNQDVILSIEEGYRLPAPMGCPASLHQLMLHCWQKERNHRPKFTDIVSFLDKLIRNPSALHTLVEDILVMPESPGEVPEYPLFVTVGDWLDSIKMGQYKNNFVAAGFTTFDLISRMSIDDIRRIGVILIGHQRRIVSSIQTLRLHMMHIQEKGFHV
Nature of the test: Selectivity interaction (KinomeScan (DiscoverX)) EUB0000045b EPHA6.

With `COCC(=O)NC/C=C/c1ccc2ncnc(Nc3ccc(Oc4ccc(C)nc4)c(C)c3)c2c1` [CP-724714], the % of control in test [1] worked out at 83%.
In test [2], `N#Cc1cccc(-c2c[nH]c3ncnc(N4CCOCC4)c23)c1` registered a % of control of 100%.
With `C=CC(=O)Nc1cc(-n2c(=O)ccc3cnc4ccc(-c5ccc(NS(C)(=O)=O)cc5)cc4c32)ccc1C`, the % of control in test [3] (at 1 µM) came to 96%; in test [3] (at 10 µM), 87%.
